Reference: ChEMBL document CHEMBL1201862, “PubChem BioAssay data set” (2004)
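Cells were grown in 96-well plates and exposed to each compound for 48 hours at five concentrations; endpoints were interpolated linearly between bracketing concentrations, or set to the highest concentration if not reached. GI50 marks 50% less growth.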 Active and inactive are the calls of the source. Cut-off read from the data, not from the text of the source: active = GI50 up to about 1.1 µM and inactive = higher.

Assays:
Experiment in all cases: growth of human tumour cells (NCI), 48 h
Malme-3M = tested on: Malme-3M
SR = tested on: SR
HL-60 = tested on: HL-60
SNB-19 = tested on: SNB-19
SW-620 = tested on: SW-620
NCI-H460 = tested on: NCI-H460
NCI-H226 = tested on: NCI-H226
SF-539 = tested on: SF-539
NCI-H522 = tested on: NCI-H522
SF-295 = tested on: SF-295
HCC 2998 = tested on: HCC 2998
RPMI-8226 = tested on: RPMI-8226
OVCAR-5 = tested on: OVCAR-5
TK-10 = tested on: TK-10
MDA-MB-231 = tested on: MDA-MB-231
RXF 393 = tested on: RXF 393
M14 = tested on: M14
EKVX = tested on: EKVX
HOP-92 = tested on: HOP-92
K562 = tested on: K562

Measured: GI50

C=C1[C@H](OC(=O)C(C)C)[C@]23CC4(O)[C@@H]5[C@@]6(C)CCC[C@]57C([C@@H]2C[C@@]1(O)[C@H](O)[C@@H]73)N4C6
inactive: Malme-3M > 100 µM | SR > 100 µM | HL-60 > 100 µM | SNB-19 > 100 µM | SW-620 > 100 µM | NCI-H460 > 100 µM | NCI-H226 > 100 µM | SF-539 > 100 µM | NCI-H522 > 100 µM | SF-295 > 100 µM | HCC 2998 27 µM | RPMI-8226 > 100 µM | OVCAR-5 > 100 µM | TK-10 > 100 µM | MDA-MB-231 > 100 µM | RXF 393 > 100 µM | M14 > 100 µM | EKVX > 100 µM | HOP-92 > 100 µM

O=S(=O)(c1ccccc1)n1c2ccc(Br)cc2c2nc3ccccc3nc21
inactive: Malme-3M > 100 µM | SR > 100 µM | SNB-19 > 100 µM | SW-620 > 100 µM | NCI-H460 > 100 µM | NCI-H226 47.9 µM | NCI-H522 > 100 µM | SF-295 > 100 µM | HCC 2998 > 100 µM | RPMI-8226 > 100 µM | OVCAR-5 > 100 µM | TK-10 > 100 µM | MDA-MB-231 > 100 µM | RXF 393 > 100 µM | M14 > 100 µM | K562 > 100 µM | HOP-92 > 100 µM

COC(=O)c1ccc(/C=N/c2cc(C)nn2-c2ccccc2)cc1
inactive: Malme-3M 70.8 µM | SR 19.2 µM | HL-60 20.1 µM | SNB-19 33.5 µM | SW-620 20.7 µM | NCI-H460 10.6 µM | NCI-H226 89.5 µM | SF-539 > 100 µM | NCI-H522 28.8 µM | SF-295 35.8 µM | HCC 2998 2.79 µM | RPMI-8226 20.4 µM | OVCAR-5 > 100 µM | TK-10 2.12 µM | MDA-MB-231 > 100 µM | RXF 393 > 100 µM | M14 22.5 µM | EKVX 75.7 µM | K562 4.5 µM | HOP-92 99.1 µM

CC(=O)NNc1nc(C)c(C(/C=C/c2ccc([N+](=O)[O-])cc2)=N/NC(N)=S)s1
inactive: Malme-3M > 100 µM | SR > 100 µM | HL-60 > 100 µM | SNB-19 > 100 µM | SW-620 > 100 µM | NCI-H460 > 100 µM | NCI-H226 > 100 µM | SF-539 > 100 µM | NCI-H522 > 100 µM | SF-295 > 100 µM | HCC 2998 > 100 µM | RPMI-8226 > 100 µM | OVCAR-5 > 100 µM | TK-10 > 100 µM | MDA-MB-231 > 100 µM | RXF 393 > 100 µM | M14 > 100 µM | EKVX > 100 µM | HOP-92 > 100 µM

CCOC(=O)Nn1c(CC#N)nnc1Cc1ccccc1
inactive: Malme-3M > 100 µM | SR > 100 µM | HL-60 > 100 µM | SNB-19 > 100 µM | SW-620 > 100 µM | NCI-H460 > 100 µM | NCI-H226 > 100 µM | SF-539 > 100 µM | NCI-H522 > 100 µM | SF-295 > 100 µM | HCC 2998 > 100 µM | RPMI-8226 > 100 µM | OVCAR-5 > 100 µM | TK-10 > 100 µM | MDA-MB-231 > 100 µM | RXF 393 > 100 µM | M14 > 100 µM | K562 > 100 µM | HOP-92 > 100 µM

CCOC(=O)c1c(N2CCCC2)[nH]c(=O)c(C(c2c(O)c(C(=O)OCC)c(N3CCCC3)[nH]c2=O)C(C)C)c1O
inactive: Malme-3M > 100 µM | SR 37.5 µM | SNB-19 70.6 µM | SW-620 > 100 µM | NCI-H460 > 100 µM | NCI-H226 > 100 µM | SF-539 > 100 µM | NCI-H522 43.5 µM | SF-295 > 100 µM | HCC 2998 52.8 µM | RPMI-8226 > 100 µM | OVCAR-5 33.2 µM | TK-10 42.4 µM | MDA-MB-231 21.7 µM | RXF 393 43 µM | M14 > 100 µM | EKVX > 100 µM | K562 > 100 µM | HOP-92 28.7 µM

O=[N+]([O-])c1ccc(/N=N/N2CCCC2)cc1
inactive: SR 79.4 µM | HL-60 32.2 µM | SNB-19 > 100 µM | SW-620 > 100 µM | NCI-H460 > 100 µM | NCI-H226 > 100 µM | SF-539 > 100 µM | NCI-H522 > 100 µM | SF-295 > 100 µM | HCC 2998 4.38 µM | RPMI-8226 > 100 µM | OVCAR-5 > 100 µM | TK-10 > 100 µM | MDA-MB-231 > 100 µM | RXF 393 > 100 µM | M14 > 100 µM | EKVX > 100 µM | K562 > 100 µM | HOP-92 > 100 µM

O=C(/C=C/c1ccc(O)c(O)c1)OCCOC(=O)/C=C/c1ccc(O)c(O)c1
inactive: Malme-3M 42.1 µM | SR 22.6 µM | SNB-19 40.3 µM | SW-620 38.1 µM | NCI-H460 37.2 µM | NCI-H226 30.1 µM | SF-539 22.4 µM | NCI-H522 20 µM | SF-295 21.5 µM | HCC 2998 31.8 µM | RPMI-8226 36.2 µM | OVCAR-5 14.2 µM | TK-10 41.5 µM | MDA-MB-231 38 µM | RXF 393 22.6 µM | M14 14.7 µM | EKVX 26.7 µM | K562 24.8 µM | HOP-92 42.2 µM

CC1(C)CC(=O)c2[nH]c3ccccc3c2CC(=O)NCCc2cn1cn2
inactive: Malme-3M > 100 µM | SR > 100 µM | SNB-19 28 µM | SW-620 > 100 µM | NCI-H460 > 100 µM | NCI-H226 > 100 µM | SF-539 > 100 µM | NCI-H522 > 100 µM | SF-295 82.8 µM | HCC 2998 > 100 µM | OVCAR-5 > 100 µM | TK-10 > 100 µM | MDA-MB-231 88.1 µM | RXF 393 73.8 µM | M14 > 100 µM | EKVX > 100 µM | K562 > 100 µM | HOP-92 36.5 µM

N#CC(c1ccc(O)cc1)N1CCN(C(C#N)c2ccc(O)cc2)CC1 (stereo unspecified)
inactive: Malme-3M > 100 µM | SR > 100 µM | HL-60 > 100 µM | SNB-19 24.9 µM | SW-620 > 100 µM | NCI-H226 34.3 µM | SF-539 34.7 µM | NCI-H522 > 100 µM | SF-295 38.3 µM | HCC 2998 > 100 µM | RPMI-8226 > 100 µM | OVCAR-5 > 100 µM | TK-10 > 100 µM | MDA-MB-231 21.9 µM | RXF 393 33.9 µM | M14 > 100 µM | EKVX 35.7 µM | K562 > 100 µM | HOP-92 23.3 µM

CC(Oc1ccccc1Cl)C(=O)NN1C(=O)CSC1c1ccccc1 (stereo unspecified)
inactive: SR 21.9 µM | HL-60 28.2 µM | SNB-19 > 100 µM | SW-620 > 100 µM | NCI-H460 > 100 µM | NCI-H226 > 100 µM | SF-539 > 100 µM | NCI-H522 64.6 µM | SF-295 68.7 µM | HCC 2998 > 100 µM | RPMI-8226 83 µM | OVCAR-5 > 100 µM | TK-10 > 100 µM | MDA-MB-231 > 100 µM | RXF 393 61.2 µM | M14 > 100 µM | EKVX > 100 µM | K562 32.7 µM | HOP-92 57.3 µM

Nc1nc(Cl)c(N)c(NCC2(CO)CCCC2)n1
inactive: Malme-3M > 100 µM | SR > 100 µM | HL-60 > 100 µM | SNB-19 > 100 µM | SW-620 > 100 µM | NCI-H460 > 100 µM | NCI-H226 > 100 µM | SF-539 > 100 µM | NCI-H522 > 100 µM | SF-295 86.7 µM | HCC 2998 > 100 µM | RPMI-8226 > 100 µM | OVCAR-5 > 100 µM | TK-10 > 100 µM | MDA-MB-231 > 100 µM | RXF 393 78.7 µM | EKVX 20.7 µM | K562 77.1 µM | HOP-92 > 100 µM

Cc1cn(CCCCC2=NCCCN2)c(=O)[nH]c1=O
inactive: SR > 28.9 µM | SNB-19 > 52.8 µM | SW-620 > 28.3 µM | NCI-H460 > 52.5 µM | NCI-H226 > 57.7 µM | NCI-H522 > 30.8 µM | SF-295 46.5 µM | HCC 2998 > 26.3 µM | RPMI-8226 > 100 µM | OVCAR-5 > 30.3 µM | TK-10 9.18 µM | MDA-MB-231 > 29.4 µM | RXF 393 25.8 µM | M14 > 25.2 µM | EKVX > 29.9 µM | K562 > 24.6 µM | HOP-92 3.66 µM

CC(C)=CCC/C(C)=C/C=C/C(C)=C/C=C/C(C)=C/C=C/C=C(C)/C=C/C=C(C)/C=C/[C@H]1C(C(C)(C)O)CC[C@]1(C)O (stereo partly specified)
inactive: SR 23 µM | HL-60 19.3 µM | SW-620 25.8 µM | NCI-H460 29.8 µM | NCI-H226 71.1 µM | SF-539 29.2 µM | NCI-H522 17.3 µM | SF-295 32.7 µM | HCC 2998 15.5 µM | RPMI-8226 17.7 µM | OVCAR-5 40 µM | TK-10 37.3 µM | MDA-MB-231 25.4 µM | RXF 393 17.3 µM | M14 28.8 µM | EKVX 40.6 µM | K562 21.4 µM | HOP-92 12.7 µM
